Data from US11498928B2, “Macrocyclic spiroethers as Mcl-1 inhibitors” (ASCENTAGE PHARMA (SUZHOU) CO., LTD., priority 2019, dated 2022).

Assays:
[1] = tested on: OPM-2 cells; assay: Cell viability assay (OPM-2 cells), CCK-8; type: cell-based; conditions: 5% FBS
Description: OPM-2 cells were obtained from Deutsche Sammlung von Mikroorganismen and Zellkulturen GmbH (DSMZ). Cells were maintained in the recommended culture medium with 10% FBS at 37° C. and an atmosphere of 5% CO2.
The effect of representative Compounds of the Disclosure on cell viability was determined using Cell Counting Kit-8 (CCK-8) assay (Shanghai Life iLab Bio Technology) according to the manufacturer's instructions. Each tested compound was serially diluted in culture medium, 100 μL of the compound dilution was added into 96-well plates. 100 μL of an OPM-2 cell suspension (20000 cells/well) in culture medium were seeded into the corresponding well of the plate and the cells were incubated at 37° C. in an atmosphere of 5% CO2 for 24 hours. In the next day, 20 μL of CCK-8 solution was added to each well of the plate and incubated for 4 hours.
The plates were read at 450 nm on the microplate spectrophotometer (SpectraMax plus 384, Molecular devices). The readings were normalized to the vehicle cells, and the IC50 was calculated by nonlinear regression analysis using GraphPad Prism 6 software.

[2] = molecular target: T1, Mcl-1 protein (residues 171-323) (Homo sapiens, UniProt Q07820); assay: Inhibition of Mcl-1 by fluorescence polarization (FP) competitive binding assay with FAM-Bid tracer; conditions: 2 nM FAM-Bid, 20 nM Mcl-1, 30 min
T1 construct: Tag-free Mcl-1 protein (residues 171-323) was used in the FP assay
T1 sequence (Q07820 171-323): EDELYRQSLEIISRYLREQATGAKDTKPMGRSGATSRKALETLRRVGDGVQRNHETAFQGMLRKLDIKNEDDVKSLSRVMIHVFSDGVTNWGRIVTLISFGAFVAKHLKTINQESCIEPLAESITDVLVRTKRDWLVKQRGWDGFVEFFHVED
Description: Inhibition of Mcl-1 by Fluorescence Polarization (FP) Assay.
The relative binding potency of representative Compounds of the Disclosure was determined by a fluorescence polarization (FP) assay (Long et al, BMC Biotechnology 13:45 (2013)). The method used a fluorescein labelled peptide (FAM-Bid) which binds to the Mcl-1 protein leading to an increased anisotropy measured in milli-polarization (mP) values using a plate reader. […] Tag-free Mcl-1 protein (residues 171-323) was used in the FP assay (Mady et al, Scientific Reports 8: 10210-10210 (2018); Yang et al, ACS Med. Chem. Lett. 3:308-312 (2012)).
A 10-points serial dilution of each compound was prepared in DMSO and 5 μL solution was transferred into flat bottomed, 96-well back plate (final DMSO concentration 5%). 120 μL of Buffer (PBS, 0.01% BGG (Sigma Cat. #SRE0011), 0.01% Triton X-100), containing the Fluorescein labelled peptide (Final concentration 2 nM) and Mcl-1 protein (final concentration 20 nM) was then added. Assay plates were incubated 30 mins at room temperature with gentle shaking before FP was measured on a Biotek Synergy 1MF reader (Ex. 485 nm, Em. 528 nm, Cut off 510 nm) and mP calculated. The binding of increasing doses of test compounds was expressed as a percentage reduction in mP compared to a window established between 5% DMSO only and 100% inhibition controls (no Mcl-1 protein). 10-points dose response curves were plotted with GraphPad software using Sigmoidal Dose-Response Model and the IC50 values were determined by nonlinear regression fitting of the competition curves. Cell Viability Assay (NCI-H929 cells)

[3] = tested on: NCI-H929 cells; assay: Cell viability assay (NCI-H929 cells), CCK-8; type: cell-based; conditions: 5% FBS
Description: NCI-H929 cells were obtained from American Type Culture Collection (ATCC). Cells were maintained in the recommended culture medium (RPMI 1640) with 10% FBS and 0.05 mM BME at 37° C. and an atmosphere of 5% CO2.
The effect of Compounds on cell viability was determined using Cell Counting Kit-8 (CCK-8) assay according to the manufacturer's instructions. 95 μL of NCI-H929 cell suspension (20000 cells/well) in culture medium were seeded into 96-well plates and cultured 4 hrs. Each tested compound was serially diluted in DMSO, then 5 μL of the compound or DMSO was diluted in 95 μL medium once more. At last, 5 μL of the compound dilution was added to the corresponding well of the cell plate. After the addition of the tested compound, the cells were incubated at 37° C. in an atmosphere of 5% CO2 for 24 hrs. At the end, 10 μL of CCK-8 solution was added to each well of the plate and incubated for 1-4 hours. The plates were read at 450 nm on the microplate reader (BioTek Synergy 1MF). The readings were normalized to the vehicle cells, and the IC50 was calculated by nonlinear regression analysis using GraphPad Prism 6 software. Cell Viability Assay (OPM-2 cells)

C[C@@H]1[C@@H](C)S(=O)(=O)NC(=O)c2ccc3c(c2)N(C[C@@H]2CC[C@H]2[C@@H](OCc2ccccn2)C2=C[C@H]1C2)C[C@@]1(CCCc2c1ccc(Cl)c2F)CO3 [compound 94, (1S,11′R,12′S,13′R,16′R,16a′R,18a′R,E)-6-chloro-5-fluoro-11′,12′-dimethyl-16′-(pyridin-2-ylmethoxy)-3,4,12′,13′,16′,16a′,17′,18′,18a′,19′-decahydro-1′H,2H,3′H,11′H-spiro[naphthalene-1,2′-[5,7]etheno[13,15]methanocyclobuta[i][1,4]oxazepino[3,4-f][1]thia[2,7]diazacyclohexadecin]-8′(9′H)-one 10′,10′-dioxide]
IC50 ([1]; Homo sapiens, OPM-2, 24 h): 96 nM
IC50 [2]: 48 nM
IC50 ([3]; Homo sapiens, NCI-H929, 24 h): 200 nM

C[C@@H]1[C@@H](C)S(=O)(=O)NC(=O)c2ccc3c(c2)N(C[C@@H]2CC[C@H]2[C@@H](OCC(=O)N2CCN(C)CC2)C2=C[C@H]1C2)C[C@@]1(CCCc2c1ccc(Cl)c2F)CO3 [compound 70, (1S,11′R,12′S,13′R,16′R,16a′R,18a′R,E)-6-chloro-5-fluoro-11′,12′-dimethyl-16′-(2-(4-methylpiperazin-1-yl)-2-oxoethoxy)-3,4,12′,13′,16′,16a′,17′,18′,18a′,19′-decahydro-1′H,2H,3′H, 11′H-spiro[naphthalene-1,2′-[5,7]etheno[13,15]methanocyclobuta[i][1,4]oxazepino[3,4-f][1]thia[2,7]diazacyclohexadecin]-8′(9′H)-one 10′,10′-dioxide]
IC50 ([1]; Homo sapiens, OPM-2, 24 h): 35 nM
IC50 [2]: 14 nM
IC50 ([3]; Homo sapiens, NCI-H929, 24 h): 81 nM

C[C@@H]1[C@@H](C)S(=O)(=O)NC(=O)c2ccc3c(c2)N(C[C@@H]2CC[C@H]2[C@@H](OCC(=O)N2CCOCC2)C2=C[C@H]1C2)C[C@@]1(CCCc2c1ccc(Cl)c2F)CO3 [compound 67, (1S,11′R,12′S,13′R,16′R,16a′R,18a′R,E)-6-chloro-5-fluoro-11′,12′-dimethyl-16′-(2-morpholino-2-oxoethoxy)-3,4,12′,13′,16′,16a′,17′,18′,18a′,19′-decahydro-1′H,2H,3′H, 11′H-spiro[naphthalene-1,2′-[5,7]etheno[13,15]methanocyclobuta[i][1,4]oxazepino[3,4-f][1]thia[2,7]diazacyclohexadecin]-8′(9′H)-one 10′,10′-dioxide]
IC50 ([1]; Homo sapiens, OPM-2, 24 h): 77 nM
IC50 [2]: 15 nM
IC50 ([3]; Homo sapiens, NCI-H929, 24 h): 97 nM

C[C@@H]1[C@@H](C)S(=O)(=O)NC(=O)c2ccc3c(c2)N(C[C@@H]2CC[C@H]2[C@@H](OCC(=O)N2CCCCC2)C2=C[C@H]1C2)C[C@@]1(CCCc2c1ccc(Cl)c2F)CO3 [compound 69, (1S,11′R,12′S,13′R,16′R,16a′R,18a′R,E)-6-chloro-5-fluoro-11′,12′-dimethyl-16′-(2-oxo-2-(piperidin-1-yl)ethoxy)-3,4,12′,13′,16′,16a′,17′,18′,18a′,19′-decahydro-1′H,2H,3′H,11′H-spiro[naphthalene-1,2′-[5,7]etheno[13,15]methanocyclobuta[i][1,4]oxazepino[3,4-f][1]thia[2,7]diazacyclohexadecin]-8′(9′H)-one 10′,10′-dioxide]
IC50 ([1]; Homo sapiens, OPM-2, 24 h): 40 nM
IC50 [2]: 14 nM
IC50 ([3]; Homo sapiens, NCI-H929, 24 h): 69 nM

CO[C@@]1(CN2CCC(N3CCOCC3)CC2)C2=C[C@@H](C2)[C@H](C)[C@@H](C)S(=O)(=O)NC(=O)c2ccc3c(n2)N(C[C@@H]2CC[C@H]21)C[C@@]1(CCCc2c1ccc(Cl)c2F)CO3 [compound 93, (1S,11′R,12′S,13′R,16′R,16a′R,18a′R)-6-chloro-5-fluoro-16′-methoxy-11′,12′-dimethyl-16′-((4-morpholinopiperidin-1-yl)methyl)-3,4,12′,13′,16′,16a′,17′,18′,18a′,19′-decahydro-1′H,2H,3′H,11′H-spiro[naphthalene-1,2′-[5,7]etheno[13,15]methanocyclobuta[i][1,4]oxazepino[3,4-f][1]thia[2,5,7]triazacyclohexadecin]-8′(9′H)-one 10′,10′-dioxide]
IC50 ([1]; Homo sapiens, OPM-2, 24 h): 71 nM
IC50 [2]: 19 nM
IC50 ([3]; Homo sapiens, NCI-H929, 24 h): 11 nM

CO[C@H]1C2=CC(C2)[C@@H](C)[C@H](C)S(=O)(=O)NC(=O)c2ccc3c(c2)N(C[C@@H]2CC[C@H]21)C[C@@]1(CCCc2cc(Cl)ccc21)CO3 (single isomer, unassigned) [12 (Isomer 1)]
IC50 ([1]; Homo sapiens, OPM-2, 24 h): 17200 nM
IC50 [2]: 4.8 nM
IC50 ([3]; 24 h): > 10000 nM

CCO[C@@]1(CN2CCN3CCOC[C@H]3C2)C2=C[C@@H](C2)[C@H](C)[C@@H](C)S(=O)(=O)NC(=O)c2ccc3c(c2)N(C[C@@H]2CC[C@H]21)C[C@@]1(CCCc2c1ccc(Cl)c2F)CO3 [compound 45, (1S,11′R,12′S,13′R,16′R,16a′R,18a′R,E)-6-chloro-16′-ethoxy-5-fluoro-16′-(((R)-hexahydropyrazino[2,1-c][1,4]oxazin-8(1H)-yl)methyl)-11′,12′-dimethyl-3,4,12,′13′,16′,16a′,17′,18′,18a′,19′-decahydro-1′H,2H,3′H,11′H-spiro[naphthalene-1,2′-[5,7]etheno[13,15]methanocyclobuta[i][1,4]oxazepino[3,4-f][1]thia[2,7]diazacyclohexadecin]-8′(9′H)-one 10′,10′-dioxide]
IC50 ([1]; Homo sapiens, OPM-2, 24 h): 105 nM
IC50 [2]: 15 nM
IC50 ([3]; Homo sapiens, NCI-H929, 24 h): 46 nM

CC(C)N1CCN(CCO[C@H]2C3=C[C@@H](C3)[C@H](C)[C@@H](C)S(=O)(=O)NC(=O)c3ccc4c(c3)N(C[C@@H]3CC[C@H]32)C[C@@]2(CCCc3c2ccc(Cl)c3F)CO4)CC1 [compound 90, (1S,11′R,12′S,13′R,16′R,16a′R,18a′R,E)-6-chloro-5-fluoro-16′-(2-(4-isopropylpiperazin-1-yl)ethoxy)-11′,12′-dimethyl-3,4,12′,13′,16′,16a′,17′,18′,18a′,19′-decahydro-1′H,2H,3′H, 11′H-spiro[naphthalene-1,2′-[5,7]etheno[13,15]methanocyclobuta[i][1,4]oxazepino[3,4-f][1]thia[2,7]diazacyclohexadecin]-8′(9′H)-one 10′,10′-dioxide]
IC50 ([1]; Homo sapiens, OPM-2, 24 h): 20 nM
IC50 [2]: 12 nM
IC50 ([3]; Homo sapiens, NCI-H929, 24 h): 1.6 nM

CO[C@@]1(CN2C[C@@H](C)N(C)[C@@H](C)C2)C2=C[C@@H](C2)[C@H](C)[C@@H](C)S(=O)(=O)NC(=O)c2ccc3c(c2)N(C[C@@H]2CC[C@H]21)C[C@@]1(CCCc2c1ccc(Cl)c2F)CO3 [compound 40, (1S,11′R,12′S,13′R,16′R,16a′R,18a′R,E)-6-chloro-5-fluoro-16′-methoxy-11′,12′-dimethyl-16′-(((3S,5R)-3,4,5-trimethylpiperazin-1-yl)methyl)-3,4,12′,13′,16′,16a′,17′,18′,18a′,19′-decahydro-1′H,2H,3′H,11′H-spiro[naphthalene-1,2′-[5,7]etheno[13,15]methanocyclobuta[i][1,4]oxazepino[3,4-f][1]thia[2,7]diazacyclohexadecin]-8′(9′H)-one 10′,10′-dioxide]
IC50 ([1]; Homo sapiens, OPM-2, 24 h): 55 nM
IC50 [2]: 17 nM
IC50 ([3]; Homo sapiens, NCI-H929, 24 h): 2.6 nM

CO[C@H]1C2=C[C@@H](C2)[C@H](C)N(C[C@@H]2CCCO2)S(=O)(=O)NC(=O)c2ccc3c(c2)N(C[C@@H]2CC[C@H]21)C[C@@]1(CCCc2cc(Cl)ccc21)CO3 (single isomer, unassigned) [30 (isomer 3)]
IC50 ([1]; Homo sapiens, OPM-2, 24 h): 6100 nM
IC50 [2]: 14 nM
IC50 ([3]; Homo sapiens, NCI-H929, 24 h): 5200 nM

CO[C@H]1C2=CC(C2)CC(C)S(=O)(=O)NC(=O)c2ccc3c(c2)N(C[C@@H]2CC[C@H]21)C[C@@]1(CCCc2cc(Cl)ccc21)CO3 (single isomer, unassigned) [11 (Isomer 2)]
IC50 ([1]; 24 h): 3860 nM
IC50 [2]: 6 nM
IC50 ([3]; 24 h): 2240 nM
